In one series the test system is bladder. The experiment in a line: cystometric measuring of the damping of the increase of the bladder tonus caused by a spasmogenic agent (carbachol). Type of series: in vivo, human. The protocol:
The effectiveness test is performed by cystometric measuring of the damping of the increase of the bladder tonus caused by the antispasmodic agent after intravesical administration of a spasmogenic agent as follows:
The bladder capacity (BC) of several human subjects with indwelling permanent catheters is measured by filling the bladders with water warmed to 37° C. The maximum micturition pressure (MM) in the case of the filled bladder is measured. The bladder is then emptied and filled again with warm, clean water to half the capacity measured previously (1/2 BC) and the pressure P1 in the case of the half-filled bladder is measured. The bladder is again emptied and filled again to half its capacity with a solution 1. […] The pressure P2 for half its capacity is measured. […] 30 minutes thereafter the emptied bladder is filled with water, warmed to 37° C. to half its capacity and the pressure P3 is measured. The bladder is subsequently emptied and filled to half its capacity with the solution 1 and the pressure P4 is measured. Fifteen minutes later, the bladder is emptied again and filled to half its capacity with water, warmed to 37° C. and the pressure P5 is measured. Directly thereafter, the bladder is emptied and filled to half its capacity with solution 1 and the pressure P6 is measured. […]

The test system of series [1] is isolated guinea pig intestine. The series is described as follows: inhibition of histamine-induced contraction of isolated guinea pig intestine. As to conditions: Cavia porcellus, 2 min, read-out: ED50 (concentration of agent per liter of bath liquid which inhibits the contraction of the intestine by 50%). Here is the method: The antispasmodic effect of the compounds (I) could not be expected from a study of their structure alone. Their effectiveness has been measured in a pharmacological standard test as follows:
Several 3 cm-long pieces of an isolated guinea pig intestine were stretched under a load of 0.5 g in separate baths. In all baths, the bath liquid was Tyrode's solution, warmed to 32° C. A first contraction of the pieces of intestine was produced in each case by adding 0.5 mg (milligram) of histamine chloride per liter of bath liquid. he reduction in length caused by the first contraction was measured 2 min (minutes) after adding the histamine chloride.
The bath liquids were then renewed and, after relaxation of the first contraction, the agent under test, dissolved in propylene glycol, was added to the bath liquids and 2 min later 0.5 mg. of histamine chloride per liter of bath liquid was again added. A second contraction was thereby produced and the reduction in length caused by this was measured 2 min after the addition of the histamine chloride. […] The concentrations (ED50) of agent per liter of bath liquid, which inhibit the contraction of the intestine by 50% were determined (ED50 = effective dose to inhibit for 50%).

The conditions of series [2]: cited from earlier work.
Where [3] appears, read: 0.5 mg histamine chloride per liter, Tyrode's solution, 32° C.

Converted amounts (≈) assume the structure as drawn. Where two headings read alike, the source gives them in different places.

As to `C=CCc1ccc(OC)c(OC)c1` [1-Allyl-3,4-dimethoxybenzene], in the series with bladder (rectal), the effectiveness on humans entry is listed as “effectiveness”. In addition, in series [1], the IC50 was determined as 11.8 µg/mL (≈ 66.2 µM).

On to `CC=Cc1ccc(OC(C)=O)c(OC)c1` [2-Methoxy-4-propenylphenyl acetate], for which the IC50 in series [1] was determined as 52 µg/mL.

For `CC=Cc1ccc(OC)c(OC)c1` [3,4-Dimethoxy-propenylbenzol], the IC50 in series [1] (setting [3]) was 27 µg/mL (≈ 151 µM).

Regarding `C=CCc1ccc(OC(C)=O)c(OC)c1` [4-Allyl-2-methoxyphenyl acetate], the effectiveness on humans result in the series on bladder (rectal or oral) is recorded as “effectiveness”. The IC50 in series [1] (setting [3]) is 25 µg/mL.

On to `C=CCc1ccc(OC(=O)c2ccccc2)c(OC)c1` [4-Allyl-2-methoxyphenyl benzoate], for which the IC50 in series [1] (setting [3]) came out at 160 µg/mL (≈ 596 µM).

Take `C=CCc1ccc(OC(=O)CCC)c(OC)c1` [4-Allyl-2-methoxyphenyl butanoate]: the IC50 in series [1] (setting [3]) is 14.5 µg/mL (≈ 61.9 µM).

Consider `C=CCc1ccc(OC(=O)CCCC)c(OC)c1` [4-Allyl-2-methoxyphenyl valerate], for which the IC50 in series [1] (setting [3]) came out at 44.6 µg/mL (≈ 180 µM).

Consider `COc1ccc(Cc2nccc3cc(OC)c(OC)cc23)cc1OC` [Papaverine], for which the non-specific actions result in series [2] (in vivo) is given as “observed”. In series [2] (prior art), the “activity in animal experiments” value is “very active in animal experiments” and the “activity when used on humans” value is listed as “its activity is insufficient”. In series [2] (prior art, lethal dose from animal experiments), the “dosage required in severe spasms relative to lethal dose” value is on record as “very high dosages, near the lethal dose”.

With `CN1[C@@H]2CC[C@H]1C[C@@H](OC(=O)C(CO)c1ccccc1)C2` (stereo partly drawn) [atropine], the drug dependence entry in series [2] (especially with long term treatment, prior art) was “drug dependence can occur”. Besides, in series [2] (known antispasmodic, prior art), the “side effects associated with use” value was “inducement of sleepiness, mental confusion and a state of inattentiveness”.
